Measurements published in paper PMC9743094, “Synthesis and Evaluation of Polymyxins Bearing Reductively Labile Disulfide-Linked Lipids” (Journal of Medicinal Chemistry, 2022).
Converted amounts (≈) assume the structure as drawn. Positions of bridges follow the written chain, without caps; N, C: chain ends. Non-standard residues stand in square brackets, D forms with d. Residues, ends and D or L forms follow the SMILES beside them. *: point of attachment. Phenylthio(4-OPh) = c1ccc(Oc2ccc(S*)cc2)cc1; S(2-cyclohexylethyl) = C1CCC(CCS*)CC1; S(3-Methylbutyl) = CC(C)CCS*; X6 = c1ccc(-c2ccc(S*)cc2)cc1; Dab = NCC[C@H](N)C(=O)O; X1 = CC(C)CCCCS*; X4 = CCCCCCS*

How the values were obtained:
[1] = system: A. baumannii (ATCC 19606); format: cell-based; details: ATCC 19606
Method: (§1) Minimum inhibitory concentrations (MICs) on relevant Gram-negative bacteria were determined by broth microdilution, in accordance with CLSI guidelines. Indicated bacteria were taken from glycerol stocks and incubated overnight on blood agar at 37 °C. Well-isolated colonies were taken, suspended in TSB (5 mL), and grown to an OD600 of 0.5. Compounds to be tested were dissolved in DMSO (6.4 mg/mL), diluted in cation-adjusted Mueller–Hinton Broth (CAMHB) (12.5 and 20 μg/mL Mg^2+ and Ca^2+, respectively), and diluted serially on polypropylene microtiter plates. To the diluted compounds (50 μL per well) was added 50 μL of relevant bacterial suspension, to yield a final concentration of 10^6 CFU/mL. Plates were covered by adhesive gas-permeable membranes and incubated at 37 °C. MIC was read out as the lowest concentration that inhibited visual bacterial growth. Shown values are consistent results from at least duplicate experiments.

[2] = system: E. coli (ATCC 25922); format: cell-based; details: ATCC 25922
Method: as §1

[3] = system: K. pneumoniae (ATCC 13883); format: cell-based; details: ATCC 13883
Method: as §1

[4] = system: P. aeruginosa (ATCC 27853); format: cell-based; details: ATCC 27853
Method: as §1

[5] = system: differentiated conditionally immortalized PTECs (ciPTECs, OAT-1); test: ciPTEC toxicity assay (PrestoBlue); format: cell-based, human
Method: ciPTECs (OAT-1) cells,[52],[53] grown to 90–100% confluence, were washed by Hanks’ balanced salt solution (HBSS; Gibco, Life Technologies, Paisley, U.K.) and detached by accutase (4 mL) for 5 min at 37 °C. The cells were then suspended in fresh medium (DMEM/F-12, supplemented with 10% fetal calf serum, insulin (5 μg/mL), transferrin (5 μg/mL), selenium (5 μg/mL) hydrocortisone (35 ng/mL), Epidermal Growth Factor (10 ng/mL) and tri-iodothyronine (40 pg/mL)). Cell density was adjusted to 2.0 × 10^5 cells/mL, of which 100 μL was added to each well of a 96-well plate. The cells were incubated for 24 h at 33 °C, followed by 6 days at 37 °C, in a humidified atmosphere containing 5% (v/v) CO2. The medium was refreshed every second or third day.
Compounds were dissolved and serially diluted in serum-free medium. Differentiated cells were washed once with HBSS and serially diluted compounds (80 μL/well) were transferred to the ciPTEC-containing plate. Compounds were incubated for 24 h at 37 °C; the cells were washed by HBSS, followed by incubation with 10% PrestoBlue cell viability reagent (Thermo Scientific, Vienna, Austria) in HBSS at 37 °C in the dark. Fluorescence was recorded (excitation: 530 nm, emission: 590 nm). Raw data are corrected for PrestoBlue background fluorescence and reported relative to the no-treatment control (cells with medium only). Viability data were fitted with GraphPad Prism software (version 5.03; GraphPad Software, La Jolla, CA), by nonlinear regression with 0 as bottom constraint. Presented data are based on triplicates.
Toxicity assessment on PTECs
Table S1. TC50 values for polymyxin analogues. Toxicity assessment on proximal tubular epithelial cells
performed using PrestoBlue™ assay. TC50 values are derived after non-linear regression analysis on cell viability
correspond to data obtained from 2 different batches of cells/analyses on different days. As the value for
polymyxin B differs 2-fold, values in the manuscript are presented relative to the polymyxin B value.
Compound TC50 (µ M) Compound TC50 (µ M)
Polymyxin B 80 Polymyxin B 41
Figure S3. Representative traces of ciPTECs’ viability after incubation with analogues for 24 hours. Shown data are based on […]

SMILES | MIC A. baumannii (ATCC 19606) [1] [µg/mL] | MIC E. coli (ATCC 25922) [2] [µg/mL] | MIC K. pneumoniae (ATCC 13883) [3] [µg/mL] | MIC P. aeruginosa (ATCC 27853) [4] [µg/mL] | TC50, Day 1 [5] [µM] | ciPTEC Toxicity Index (relative to polymyxin B) [5]
CC(C)C[C@@H]1NC(=O)[C@@H](Cc2ccccc2)NC(=O)[C@H](CCN)NC(=O)[C@@H](NC(=O)[C@H](CCN)NC(=O)[C@@H](NC(=O)[C@H](N)CSSc2ccc(-c3ccccc3)cc2)[C@@H](C)O)CCNC(=O)[C@H]([C@@H](C)O)NC(=O)[C@H](CCN)NC(=O)[C@H](CCN)NC1=O [Compound 29b] (H-[dC](X6)T[Dab][Dab][Dab][dF]L[Dab][Dab]T; lactam 4-C) | 8 (≈ 6.4 µM) | 8 (≈ 6.4 µM) | 2 (≈ 1.6 µM) | 8 (≈ 6.4 µM) | – | –
CC(C)C[C@@H]1NC(=O)[C@@H](Cc2ccccc2)NC(=O)[C@H](CCN)NC(=O)[C@@H](NC(=O)[C@H](CCN)NC(=O)[C@@H](NC(=O)[C@@H](N)CSSCCC2CCCCC2)[C@@H](C)O)CCNC(=O)[C@H]([C@@H](C)O)NC(=O)[C@H](CCN)NC(=O)[C@H](CCN)NC1=O [Compound 19a] (H-C(S(2-cyclohexylethyl))T[Dab][Dab][Dab][dF]L[Dab][Dab]T; lactam 4-C) | 32 (≈ 26.5 µM) | 8 (≈ 6.62 µM) | 4 (≈ 3.31 µM) | 4 (≈ 3.31 µM) | – | –
CC(C)C[C@@H]1NC(=O)[C@@H](Cc2ccccc2)NC(=O)[C@H](CCN)NC(=O)[C@@H](NC(=O)[C@H](CCN)NC(=O)[C@@H](N)[C@@H](C)O)CCNC(=O)[C@H]([C@@H](C)O)NC(=O)[C@H](CCN)NC(=O)[C@H](CCN)NC1=O [PMBN, polymyxin B nonapeptide, reference compound] (H-T[Dab][Dab][Dab][dF]L[Dab][Dab]T; lactam 3-C) | >32 | >32 | >32 | >32 | – | –
CC(C)C[C@@H]1NC(=O)[C@@H](Cc2ccccc2)NC(=O)[C@H](CCN)NC(=O)[C@@H](NC(=O)[C@H](CCN)NC(=O)[C@@H](NC(=O)[C@H](CSSc2ccc(Oc3ccccc3)cc2)NC(=O)CN)[C@@H](C)O)CCNC(=O)[C@H]([C@@H](C)O)NC(=O)[C@H](CCN)NC(=O)[C@H](CCN)NC1=O [Compound 32a] (H-GC(Phenylthio(4-OPh))T[Dab][Dab][Dab][dF]L[Dab][Dab]T; lactam 5-C) | 32 (≈ 24.2 µM) | 8 (≈ 6.04 µM) | 4 (≈ 3.02 µM) | 8 (≈ 6.04 µM) | – | –
CC(C)C[C@@H]1NC(=O)[C@@H](Cc2ccccc2)NC(=O)[C@H](CCN)NC(=O)[C@@H](NC(=O)[C@H](CCN)NC(=O)[C@@H](NC(=O)[C@H](N)CSSc2ccc(Oc3ccccc3)cc2)[C@@H](C)O)CCNC(=O)[C@H]([C@@H](C)O)NC(=O)[C@H](CCN)NC(=O)[C@H](CCN)NC1=O [Compound 30b] (H-[dC](Phenylthio(4-OPh))T[Dab][Dab][Dab][dF]L[Dab][Dab]T; lactam 4-C) | 4 (≈ 3.16 µM) | 4 (≈ 3.16 µM) | 2 (≈ 1.58 µM) | 4 (≈ 3.16 µM) | – | –
CCCCCCSSC[C@H](NC(=O)CN)C(=O)N[C@H](C(=O)N[C@@H](CCN)C(=O)N[C@H]1CCNC(=O)[C@H]([C@@H](C)O)NC(=O)[C@H](CCN)NC(=O)[C@H](CCN)NC(=O)[C@H](CC(C)C)NC(=O)[C@@H](Cc2ccccc2)NC(=O)[C@H](CCN)NC1=O)[C@@H](C)O [Compound 21a] (H-GC(X4)T[Dab][Dab][Dab][dF]L[Dab][Dab]T; lactam 5-C) | 2 (≈ 1.61 µM) | 4 (≈ 3.23 µM) | 1 (≈ 0.807 µM) | 2 (≈ 1.61 µM) | – | –
CC(C)C[C@@H]1NC(=O)[C@@H](Cc2ccccc2)NC(=O)[C@H](CCN)NC(=O)[C@@H](NC(=O)[C@H](CCN)NC(=O)[C@@H](NC(=O)[C@@H](N)CSSc2ccc(Oc3ccccc3)cc2)[C@@H](C)O)CCNC(=O)[C@H]([C@@H](C)O)NC(=O)[C@H](CCN)NC(=O)[C@H](CCN)NC1=O [Compound 30a] (H-C(Phenylthio(4-OPh))T[Dab][Dab][Dab][dF]L[Dab][Dab]T; lactam 4-C) | >32 | 4 (≈ 3.16 µM) | 4 (≈ 3.16 µM) | 4 (≈ 3.16 µM) | – | –
CC(C)CCCCSSC[C@H](N)C(=O)N[C@H](C(=O)N[C@@H](CCN)C(=O)N[C@H]1CCNC(=O)[C@H]([C@@H](C)O)NC(=O)[C@H](CCN)NC(=O)[C@H](CCN)NC(=O)[C@H](CC(C)C)NC(=O)[C@@H](Cc2ccccc2)NC(=O)[C@H](CCN)NC1=O)[C@@H](C)O [Compound 20a] (H-C(X1)T[Dab][Dab][Dab][dF]L[Dab][Dab]T; lactam 4-C) | 4 (≈ 3.34 µM) | 2 (≈ 1.67 µM) | 1 (≈ 0.836 µM) | 2 (≈ 1.67 µM) | – | –
CC(C)C[C@@H]1NC(=O)[C@@H](Cc2ccccc2)NC(=O)[C@H](CCN)NC(=O)[C@@H](NC(=O)[C@H](CCN)NC(=O)[C@@H](NC(=O)[C@@H](CSSc2ccc(-c3ccccc3)cc2)NC(=O)CN)[C@@H](C)O)CCNC(=O)[C@H]([C@@H](C)O)NC(=O)[C@H](CCN)NC(=O)[C@H](CCN)NC1=O [Compound 31b] (H-G[dC](X6)T[Dab][Dab][Dab][dF]L[Dab][Dab]T; lactam 5-C) | 16 (≈ 12.2 µM) | 8 (≈ 6.12 µM) | 4 (≈ 3.06 µM) | 8 (≈ 6.12 µM) | – | –
CC(C)CCSSC[C@H](NC(=O)CN)C(=O)N[C@H](C(=O)N[C@@H](CCN)C(=O)N[C@H]1CCNC(=O)[C@H]([C@@H](C)O)NC(=O)[C@H](CCN)NC(=O)[C@H](CCN)NC(=O)[C@H](CC(C)C)NC(=O)[C@@H](Cc2ccccc2)NC(=O)[C@H](CCN)NC1=O)[C@@H](C)O [Compound 22a] (H-GC(S(3-Methylbutyl))T[Dab][Dab][Dab][dF]L[Dab][Dab]T; lactam 5-C) | 4 (≈ 3.26 µM) | – | 2 (≈ 1.63 µM) | 2 (≈ 1.63 µM) | 305 | 3.8
CC(C)C[C@@H]1NC(=O)[C@@H](Cc2ccccc2)NC(=O)[C@H](CCN)NC(=O)[C@@H](NC(=O)[C@H](CCN)NC(=O)[C@@H](NC(=O)[C@@H](CSSc2ccc(Oc3ccccc3)cc2)NC(=O)CN)[C@@H](C)O)CCNC(=O)[C@H]([C@@H](C)O)NC(=O)[C@H](CCN)NC(=O)[C@H](CCN)NC1=O [Compound 32b] (H-G[dC](Phenylthio(4-OPh))T[Dab][Dab][Dab][dF]L[Dab][Dab]T; lactam 5-C) | 8 (≈ 6.04 µM) | 8 (≈ 6.04 µM) | 4 (≈ 3.02 µM) | 4 (≈ 3.02 µM) | – | –
CC(C)C[C@@H]1NC(=O)[C@@H](Cc2ccccc2)NC(=O)[C@H](CCN)NC(=O)[C@@H](NC(=O)[C@H](CCN)NC(=O)[C@@H](NC(=O)[C@@H](N)CSSc2ccc(-c3ccccc3)cc2)[C@@H](C)O)CCNC(=O)[C@H]([C@@H](C)O)NC(=O)[C@H](CCN)NC(=O)[C@H](CCN)NC1=O [Compound 29a] (H-C(X6)T[Dab][Dab][Dab][dF]L[Dab][Dab]T; lactam 4-C) | 32 (≈ 25.6 µM) | 4 (≈ 3.2 µM) | 4 (≈ 3.2 µM) | 8 (≈ 6.4 µM) | – | –
